From patent US7348329B2, “Therapeutic agent for keratoconjunctival disorder” (Santen Pharmaceutical Co., Ltd., priority 2003, dated 2008)

Test system: corneal damage in corneal disorder models
Experiment: Test for therapeutic effect on corneal damage (corneal disorder model, exorbital lacrimal gland removed)
Assay type: in vivo, male SD rats
Conditions: for Effect on corneal damage (in words): male SD rat corneal disorder model; for Effect on corneal damage (in words) / Improvement ratio (%): 0.02% eye drops 6 times a day for 7 days; for Improvement ratio (%) / Mean value of total scores (fluorescein staining of upper, middle and lower parts of the cornea): male SD rat; for Improvement ratio (%): {(control)-(compound)}/{(control)-(normal eye)}x100, control = 0%; for Mean value of total scores (fluorescein staining of upper, middle and lower parts of the cornea): 0.02% in physiological saline instilled into both eyes 6 times a day for 7 days, scored 7 days after start, mean of 8 eyes, each part scored 0-3
Description: Test for Therapeutic Effect on Corneal Damage
Using male SD rats, in accordance with the method of Fujihara et al. (Invest. Ophthalmol. Vis. Sci. 42 (1): 96-100 (2001)), corneal disorder models were produced. After the production of the corneal disorder models, the improvement ratio of a corneal damage was evaluated according to the method of Murakami et al. (journal of the eye 21 (1): 87-90 (2004))
A male SD rat was systemically anesthetized by an administration of Nembutal. Subsequently the exorbital lacrimal gland was removed and a corneal damage was induced over a period of 2 months.
Then, 5-[4-[[3-methyl-4-oxo-3,4-dihydro-2-quinazolinyl]methoxy]phenylmethyl]thiazolidine-2,4-dione (Compound A) or N-[(4-methoxyphenoxy)carbonyl]-N-[[4-[2-(5-methyl-2-phenyl-4-oxazolyl)ethoxy]phenyl]methyl]glycine (Compound B) was administered as follows.
A physiological saline solution of Compound A (0.02%) was instilled into both eyes 6 times a day for 7 days (one group consisting of 4 animals, 8 eyes).
A physiological saline solution of Compound B (0.02%) was instilled into both eyes 6 times a day for 7 days (one group consisting of 4 animals, 8 eyes).
In a control group, physiological saline was instilled into both eyes 6 times a day for 7 days (one group consisting of 4 animals, 8 eyes).
Seven days after the start of instillation, the damaged parts of the cornea were stained with fluorescein. For each of the upper, middle and lower parts of the cornea, the degree of fluorescein staining was evaluated by scoring according to the criteria shown below and the mean value of the total scores for each of the above-mentioned parts was calculated.
Further, the mean value of the total scores for the normal eye was also calculated.
• 0: No punctate staining • 1: Scattered staining (punctate, separated staining) • 2: Moderate staining(a part of punctate staining being adjacent) • 3: Heavy staining (punctate, barely separated staining) (Results)
By taking the mean value of the total scores for the control group (physiological saline) as a reference (improvement ratio: 0%), the calculation was carried out according to the calculation formula shown below. Each of the improvement ratios for the Compound A administered group and the Compound B administered group are shown in Table 1 and Table 2. The mean value of the scores is a mean of those of 8 cases, respectively. Improvement ratio (%)={(control)−(the present compound)}/damage degree×100 Damage degree=(control)−(normal eye)

`COc1ccc(OC(=O)N(CC(=O)O)Cc2ccc(OCCc3nc(-c4ccccc4)oc3C)cc2)cc1` [Compound B, N-[(4-methoxyphenoxy)carbonyl]-N-[[4-[2-(5-methyl-2-phenyl-4-oxazolyl)ethoxy]phenyl]methyl]glycine] was tested, and the “Effect on corneal damage (in words)” value was “significantly improve a corneal damage”, the “Improvement ratio (%)” value was 42.3% and the “Mean value of total scores (fluorescein staining of upper, middle and lower parts of the cornea)” value was 5.2.
With `Cn1c(COc2ccc(CC3SC(=O)NC3=O)cc2)nc2ccccc2c1=O` (stereo not drawn) [Compound A, 5-[4-[[3-methyl-4-oxo-3,4-dihydro-2-quinazolinyl]methoxy]phenylmethyl]thiazolidine-2,4-dione] the “Effect on corneal damage (in words)” value was “significantly improve a corneal damage”, the “Improvement ratio (%)” value was 40.0% and the “Mean value of total scores (fluorescein staining of upper, middle and lower parts of the cornea)” value was 4.8.
